From PubChem BioAssay (NCI)
Several values for one entry are separate records, joined by “and”; a condition that tells them apart may be missing. Equal values may be shown once.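 Cultured in 96-well plates, cells were exposed to test compound for 48 hours across five concentrations. GI50 = concentration required for 50% inhibition of growth. TGI is the concentration that stops growth completely.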

Tests used:
Assay in all cases: NCI-60 cell line screen, 48 h
[1] = tested on: DMS 114 small cell lung
[2] = tested on: XF 498 CNS
[3] = tested on: KM20L2 colon
[4] = tested on: DLD-1 colon
[5] = tested on: SNB-78 CNS
[6] = tested on: HS 578T breast
[7] = tested on: DU-145 prostate
[8] = tested on: MDA-MB-435
[9] = tested on: BT-549 breast

SMILES	TGI [1]	TGI [2]	TGI [3]	TGI [4]	TGI [5]	GI50 [6]	TGI [6]	GI50 [7]	TGI [7]	GI50 [8]	TGI [8]	GI50 [9]	TGI [9]
Cn1cc(C(=O)C[n+]2ccccc2)c2ccccc21	> 100 µM	> 100 µM	> 100 µM	> 100 µM									
CN(C)CC/[N+]([O-])=C(/c1ccccc1)C12CC3CC(CC(C3)C1)C2	36 µM	25.9 µM	24.5 µM	32 µM	41.8 µM								
O=C(c1ccccc1)c1cn(/N=C\c2ccccc2)c(=O)nc1-c1ccccc1	> 100 µM		> 100 µM	> 100 µM	> 100 µM								
CC(=O)C1=C(O)CC2CC3c4[nH]c5ccccc5c4CCN3CC2C1 (stereo unspecified)	> 100 µM	> 100 µM	> 100 µM	> 100 µM	> 100 µM								
C=C1CC2(OC1=O)C(=O)Nc1ccccc12 (stereo unspecified)						11 µM	56.6 µM	2.54 µM	8.47 µM	3.57 µM	14.9 µM	4.24 µM	17.1 µM
CC(C)=CC1=C2C3=C(C(=O)C4(O)Oc5c(C)c6c7c(c5OC24C)[C@@H](C)CC[C@@H]7[C@@H](C)C[C@H]6C=C(C)C)C(C)CCC3C(C)C1 (stereo partly specified)						> 100 µM	> 100 µM	> 100 µM	> 100 µM	> 100 µM	> 100 µM	> 100 µM	> 100 µM
OCC#Cc1ccccc1C#CCCCCCC#Cc1ccccc1C#CCO						21.7 µM	43.7 µM	20.2 µM	41.7 µM	18.8 µM	36.1 µM	19.8 µM	39.8 µM
CSc1nc(SC)c2c(CO)c(Br)n(Cc3ccccc3)c2n1							58.9 µM		77.8 µM		> 100 µM		62.4 µM
O=C1c2ccccc2S(=O)(=O)c2cc(-c3nn[nH]n3)ccc21							> 100 µM		> 100 µM		> 100 µM		> 100 µM
Cc1cc(C)c(-n2c(-c3ccc(Br)cc3)cs/c2=N\N=C2C=C(C(C)(C)C)C(=O)C(C(C)(C)C)=C2)c(C)c1	> 100 µM	> 100 µM	> 100 µM	> 100 µM	> 100 µM		62.5 µM		> 100 µM		> 100 µM		> 100 µM
CC12CCC(Br)C(C)(C)C1CC=C1C(=O)OCC1O2 (stereo unspecified)							55 µM		25.7 µM		35.6 µM		41 µM
C=C1C(=O)O[C@H]2[C@H]1CC/C(Cn1cc(-c3ccccc3C(F)(F)F)nn1)=C\CC[C@@]1(C)O[C@@H]21						3.57 µM	26.7 µM	1.42 µM	2.78 µM	2.18 µM	7.11 µM	2.4 µM	8.28 µM
Cc1cc2c(C)nn(Cc3ccc(Cl)cc3)c2c(C#N)c1C		> 100 µM	> 100 µM		> 100 µM								
Clc1ccc(C(n2cc(Br)cn2)n2cc(Br)cn2)cc1					44.4 µM								
CCCCCCCc1cc2c3c(nc4ccccc42)C(=O)c2cccnc2-c3n1						4.86 µM	11.6 µM	2.54 µM	6.63 µM	1.96 µM	4.33 µM	16.2 µM	33.2 µM
O=C1C(=Cc2c(O)cc(O)cc2O)C(=O)c2ccccc21	> 100 µM		> 57.6 µM	> 55.2 µM	62.1 µM				38.5 µM				

SMILES	TGI [1]	TGI [2]	TGI [3]	TGI [4]	TGI [5]	GI50 [6]	TGI [6]	GI50 [7]	TGI [7]	GI50 [8]	TGI [8]	GI50 [9]	TGI [9]
O=c1c2cc(Cl)ccc2sc2cccc(Cl)c12			> 100 µM		> 100 µM								
CN1C(=O)C2C(C1=O)C1(O)c3ccccc3C2(N)c2ccccc21 (stereo unspecified)	> 100 µM			> 100 µM	> 100 µM								
COc1ccc(C2ON(c3cccc(C)n3)CC=C2C)cc1 (stereo unspecified)	> 100 µM	> 100 µM	> 100 µM	> 100 µM	> 100 µM								
COc1ccc2c(c1)C(=O)c1c-2n(CCCI)c(=O)c2cc([N+](=O)[O-])ccc12						7.67 µM and 3.85 µM	31.2 µM and 35.3 µM	0.0541 µM and 0.0341 µM	0.172 µM and 0.811 µM	0.449 µM and 1.49 µM	5.43 µM and 16.5 µM	0.112 µM and 0.786 µM	
COc1ccccc1NC(=O)CC(=O)N/N=C/c1ccc(N(CCC#N)S(=O)(=O)c2ccccc2)cc1	> 100 µM	> 100 µM	> 100 µM	> 100 µM	> 100 µM								
CCCSS[C@H]1NC(=O)[C@H]1NC(=O)COc1ccccc1	34.5 µM	33.8 µM	42.4 µM	23.2 µM	60.6 µM								
Cc1cn(-c2cc(NC(=O)c3ccc(C)c(Nc4nccc(-c5cccnc5)n4)c3)cc(C(F)(F)F)c2)cn1						5.73 µM and 2.52 µM	> 10 µM and 6.8 µM	3.25 µM and 2.34 µM	> 10 µM and 4.47 µM	1.79 µM and 1.57 µM	4.65 µM and 4.76 µM	5.38 µM and 3.57 µM	> 10 µM and 10 µM
COC(=O)[C@@H](C)C[C@H](Cc1ccccc1)NC(=O)c1csc([C@@H](C[C@H](C(C)C)N(C)C(=O)[C@@H](NC(=O)[C@H]2CCCCN2C)C2CC2)OC(C)=O)n1						0.00112 µM and 0.00165 µM	> 16.5 µM	0.000311 µM		< 0.00165 µM	< 0.00165 µM	0.000506 µM and 0.00165 µM	0.0298 µM and 0.0146 µM
N#CC1CCCCCCCCCCC(=O)N(CCCl)C1=O (stereo unspecified)	> 100 µM	> 100 µM	> 100 µM	> 100 µM	> 100 µM								
CC(=O)OCc1cc2ccccc2nc1C(Br)(Br)Br							> 100 µM		23.9 µM		27 µM		27.2 µM
CCN(CC)c1ccc(N=Nc2ccc(-c3nc4ccc[n+](C)c4o3)cc2)cc1	15.8 µM	23.5 µM	25.9 µM	20.1 µM	32.6 µM								
C#CCOc1cccc(Nc2ncnc3cc(NC(=O)CCl)ccc23)c1						3.61 µM	26.9 µM	10 µM	21.6 µM	3.1 µM	16.4 µM	6.08 µM	20.3 µM
O=C(O)CCc1nn2c(nc1=O)sc1ccc3ccccc3c12	> 100 µM	> 100 µM	> 100 µM	> 100 µM	> 100 µM								
N#CC1(C#N)C(C#N)(C#N)C12CCCCCC2	43.2 µM		32 µM	10.3 µM	38.5 µM								
CC(C)(c1ccccc1)c1ccc(OC#N)cc1	> 53.9 µM	> 100 µM	> 100 µM	> 62.5 µM	> 100 µM								
